Patent US20040204486A1, “Anandamide and structurally related lipids as vanilloid receptor modulators” (priority 2000, published 2004)
Read-outs that look alike come from different tables or passages of the source. No end group written: not given here.

What was measured:
rat hepatic artery = test: Recording of tension: relaxation of isolated rat hepatic artery contracted with phenylephrine; settings: for EC50: read-out: pEC50 of relaxation (converted); for effect on anandamide-induced relaxation / effect on AM404-induced relaxations: capsaicin 10 μM pre-treatment; for effect on anandamide-induced relaxation: 8-37 CGRP 2 μM; for effect on AM404-induced relaxations: 8-37 CGRP 3 μM, SR141716A 0.3 μM; for vasodilator response (relaxation): α-latrotoxin 1 nM
[1] = tested on: guinea pig basilar artery; test: Recording of tension: relaxation of isolated guinea pig basilar artery contracted with prostaglandin F2α; settings: for effect on anandamide-induced relaxation: capsaicin 10 μM pre-treatment, 8-37 CGRP 2 μM; for Emax / EC50: Cavia porcellus; for Emax: read-out: Emax of relaxation, guinea pig basilar artery; for EC50: read-out: pEC50 of relaxation, guinea pig basilar artery (converted)
rat mesenteric artery = test: Recording of tension: relaxation of isolated rat mesenteric artery contracted with phenylephrine; settings: for effect on anandamide-induced relaxation / effect on relaxant effects of 1-arachidonylglycerol and 2-arachidonylglycerol: capsaicin 10 μM pre-treatment; for effect on anandamide-induced relaxation: 8-37 CGRP 2 μM; for effect on relaxant effects of 1-arachidonylglycerol and 2-arachidonylglycerol: rat mesenteric arteries, capsazepine 1 μM
[2] = biological target: cannabinoid CB1 receptors (Homo sapiens, UniProt P21554); settings: cited from earlier work
Chain of cannabinoid CB1 receptors (P21554 whole entry): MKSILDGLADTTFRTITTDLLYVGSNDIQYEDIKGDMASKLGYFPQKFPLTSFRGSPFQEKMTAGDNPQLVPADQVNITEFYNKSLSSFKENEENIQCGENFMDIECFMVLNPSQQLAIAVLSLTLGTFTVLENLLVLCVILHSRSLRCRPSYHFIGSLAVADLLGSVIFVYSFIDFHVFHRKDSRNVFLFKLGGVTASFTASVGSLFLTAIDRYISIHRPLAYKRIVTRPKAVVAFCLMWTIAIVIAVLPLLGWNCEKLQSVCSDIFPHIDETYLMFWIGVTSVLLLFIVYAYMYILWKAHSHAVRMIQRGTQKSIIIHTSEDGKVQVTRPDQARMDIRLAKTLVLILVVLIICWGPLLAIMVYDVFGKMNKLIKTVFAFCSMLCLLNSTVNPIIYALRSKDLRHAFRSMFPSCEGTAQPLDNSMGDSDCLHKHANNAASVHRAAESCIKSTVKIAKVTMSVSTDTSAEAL

[3] = tested on: CGRP release from perivascular sensory nerves; test: Measurement of CGRP release from rat hepatic artery segments (radioimmunoassay)
Method: Measurement of CGRP and cyclic AMP.
After 10 minutes the segments were removed and the physiological salt solution was evaporated.

cyclic AMP content = test: Measurement of cyclic AMP content in rat hepatic artery segments
vanilloid receptors = biological target: T1, vanilloid receptors (Rattus norvegicus, UniProt O35433); test: Schild analysis of capsazepine antagonism of relaxation in rat hepatic artery; settings: for slope of the Schild regression line: mean±SEM; for Kb: pA2 (Schild plot)
T1 construct: To determine whether native vanilloid receptors might be involved in the action of anandamide; from tissue; host or cells: hepatic artery ring segments from female Wistar-Hannover rats
T1 sequence (O35433 whole entry): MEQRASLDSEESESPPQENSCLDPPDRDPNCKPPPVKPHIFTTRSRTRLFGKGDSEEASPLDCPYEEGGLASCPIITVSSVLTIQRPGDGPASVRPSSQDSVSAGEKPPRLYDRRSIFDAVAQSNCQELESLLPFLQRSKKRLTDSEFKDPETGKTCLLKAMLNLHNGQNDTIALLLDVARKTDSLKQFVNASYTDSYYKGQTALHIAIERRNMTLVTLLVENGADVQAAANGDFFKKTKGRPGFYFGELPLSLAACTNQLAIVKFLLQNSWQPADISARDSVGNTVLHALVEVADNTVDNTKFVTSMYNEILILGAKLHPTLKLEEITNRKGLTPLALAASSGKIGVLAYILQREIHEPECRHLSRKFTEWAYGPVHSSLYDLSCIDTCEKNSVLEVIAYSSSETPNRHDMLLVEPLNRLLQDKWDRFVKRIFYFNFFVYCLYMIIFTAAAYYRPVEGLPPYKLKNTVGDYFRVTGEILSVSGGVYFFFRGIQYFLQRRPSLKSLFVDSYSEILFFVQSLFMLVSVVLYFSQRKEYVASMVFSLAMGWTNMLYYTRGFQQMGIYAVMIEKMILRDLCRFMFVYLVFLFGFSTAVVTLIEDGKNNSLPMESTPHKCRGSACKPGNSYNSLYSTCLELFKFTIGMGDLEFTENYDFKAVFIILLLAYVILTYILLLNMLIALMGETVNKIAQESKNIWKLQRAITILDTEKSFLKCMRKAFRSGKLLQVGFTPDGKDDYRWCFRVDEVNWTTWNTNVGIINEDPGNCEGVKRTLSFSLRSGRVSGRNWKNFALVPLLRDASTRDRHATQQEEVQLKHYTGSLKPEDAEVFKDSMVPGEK
Method: Recording of tension. Experiments were performed on hepatic (400 μm outer diameter) and mesenteric (200 μm outer diameter) arteries from female Wistar-Hannover rats (200-250 g) and on basilar arteries (300 μm outer diameter) from male guinea pigs. […] All experiments were performed in the presence of N^G-nitro-L-arginine (0.3 mM) and indomethacin (10 μM) to eliminate any contribution of nitric oxide and cyclooxygenase products, respectively (refs. 38, 23). Relaxant responses were studied in preparations contracted with phenylephrine (rat hepatic and mesenteric arteries) and prostaglandin F2α (guinea pig basilar artery) (refs. 38, 43). When stable contractions were obtained, agonists were added cumulatively to determine concentration-response relationships.
Some preparations were pre-treated with capsaicin for 1 hour followed by washout for 20 minutes. Each vessel segment was exposed to only one treatment. The experiments were carried out with the approval of the local ethics committee.
Calculations and statistics. Relaxations are expressed as percentage reversal of the prevailing contraction (100% indicates a complete reversal to basal tension). […] Data are presented as means±s.e.mean (vertical lines in figures), and n indicates the number of vascular segments (animals) examined. pA2 and slope values of the Shild plots were estimated according to the Jackknife method (ref. 46). Statistical analysis was performed by using Student's t-test (two-tailed), Mann-Whitney U-test, or analysis of variance (ANOVA) on log transformed values (cyclic AMP) followed by Bonferroni Dunn's post hoc test (Statview 4.12). Statistical significance was accepted when P<0.05.

[4] = guinea pig basilar artery, 10 μM
[5] = Rattus norvegicus, control (agonist alone)
[6] = rat mesenteric artery, capsazepine 3 μM
[7] = guinea pig basilar artery, capsazepine 3 μM
[8] = Rattus norvegicus, in presence of SR141716A (0.3 μM)
[9] = in presence of SR141716A (0.3 μM)
[10] = segments pre-treated with capsaicin (10 μM)

## CCCCCCC(C)(C)c1ccc([C@@H]2C[C@H](O)CC[C@H]2CCCO)c(O)c1 [CP 55,940]
Rat hepatic artery; 10 μM
  relaxation at 10 μM: significant relaxation
Rat hepatic artery; 10 μM, capsaicin (10 μM) pre-treatment
  relaxation after pre-treatment with capsaicin: resistant to pre-treatment with capsaicin
[1]; [4]
  relaxation at 10 μM: significant relaxation
[1]; guinea pig basilar artery, 10 μM, capsaicin (10 μM) pre-treatment
  relaxation after pre-treatment with capsaicin: resistant to pre-treatment with capsaicin

## CCCCC/C=C\C/C=C\C/C=C\C/C=C\CCCCOCC(O)CO (stereo not shown) [1-arachidonylglycerol]
Rat mesenteric artery; rat mesenteric arteries contracted with phenylephrine
  vasodilator action: vasodilators

## CCCCC/C=C\C/C=C\C/C=C\C/C=C\CCCC(=O)O [arachidonic acid]
Rat hepatic artery; 10 μM
  relaxation at 10 μM: inactive
[1]; [4]
  relaxation at 10 μM: inactive

## CCCCCCC(C)(C)c1cc(O)c2c(c1)OC(C)(C)[C@@H]1CC=C(CO)C[C@@H]21 [HU 210]
Rat hepatic artery
  relaxation: did not produce any relaxation
[1]; guinea pig basilar artery
  relaxation: did not produce any relaxation

## CCCCCCCCCCCCCCCC(=O)NCCO [palmitylethanolamide]
Rat hepatic artery
  relaxation: did not produce any relaxation
[1]; guinea pig basilar artery
  relaxation: did not produce any relaxation

## NCCO [ethanolamine]
Rat hepatic artery; 10 μM
  relaxation at 10 μM: inactive
[1]; [4]
  relaxation at 10 μM: inactive

## CCCCCC=CCC=CCC=CCC=CCCCC(=O)Nc1ccc(O)cc1 [AM404, N-(4-hydroxyphenyl)-5,8,11,14-eicosatetraenamide]
Rat hepatic artery
  vasodilator potency compared to anandamide: ~10 times
Rat hepatic artery; [5]
  Emax: 97 ± 2%
  EC50: 39.8 nM
Rat hepatic artery; capsazepine 3 μM
  effect on anandamide-induced relaxation: inhibited this response
Rat hepatic artery; control (agonist alone)
  pEC50 of relaxation: 7.3±0.2
Rat hepatic artery; in presence of capsazepine (3 μM)
  pEC50 of relaxation: 6.4±0.2
[2]
  Ki: 1760 nM

## Cc1c(C(=O)NN2CCCCC2)nn(-c2ccc(Cl)cc2Cl)c1-c1ccc(Cl)cc1.Cl [SR141716A, N-(piperidin-1-yl)-5-(4-chlorophenyl)-1-(2,4-dichlorophenyl)-4-methyl-1H-pyrazole-3-carboxamide hydrochloride]
Rat hepatic artery; capsazepine 3 μM
  effect on AM404-induced relaxations: without effect

## 8-37 CGRP: selective CGRP receptor antagonist (VTHRLAGLLSRSGGVVKNNFVPTNVGSKAF; ends and bridges not checked; UniProt P06881 90-119, looked up, fragment)
Rat hepatic artery; capsazepine 3 μM
  effect on anandamide-induced relaxation: inhibited
  effect on AM404-induced relaxations: abolished
Rat mesenteric artery; [6]
  effect on anandamide-induced relaxation: inhibited
[1]; [7]
  effect on anandamide-induced relaxation: inhibited

## Cc1c(C(=O)c2cccc3ccccc23)c2cccc3c2n1[C@H](CN1CCOCC1)CO3 [WIN 55,212-2]
Rat hepatic artery
  relaxation: did not produce any relaxation
[1]; guinea pig basilar artery
  relaxation: did not produce any relaxation

## CCCCC/C=C\C/C=C\C/C=C\C/C=C\CCCC(=O)NCCO [anandamide, arachidonylethanolamide]
Rat hepatic artery; 10 μM
  relaxation at 10 μM: completely relaxed
Rat hepatic artery; [5]
  Emax: 100 ± 1%
  EC50: 355 nM
Rat hepatic artery; [8]
  Emax: 97 ± 1%
Rat hepatic artery; control (agonist alone)
  pEC50 of relaxation: 6.49±0.01
Rat hepatic artery; [9]
  pEC50 of relaxation: 6.44±0.12
[1]; control (agonist alone)
  Emax: 92 ± 3%
  EC50: 955 nM
[1]; [9]
  Emax: 91 ± 2%
  EC50: 776 nM
[1]; [4]
  relaxation at 10 μM: completely relaxed
[3]; anandamide 10 μM, 10 minute exposure
  release of CGRP: significant release of CGRP
[3]; [10]
  release of CGRP after capsaicin pre-treatment: absent
Cyclic AMP content; anandamide 10 μM or CGRP 10 nM, 5 minutes
  tissue content of cyclic AMP: increase in tissue content of cyclic AMP
Cyclic AMP content; [10]
  tissue content of cyclic AMP after capsaicin pre-treatment: absent

## CCCCC/C=C\C/C=C\C/C=C\C/C=C\CCCC(=O)N[C@H](C)CO [methanandamide]
Rat hepatic artery; [5]
  Emax: 99 ± 1%
  EC50: 316 nM
Rat hepatic artery; [8]
  Emax: 99 ± 1%
Rat hepatic artery; control (agonist alone)
  Emax of relaxation: 97±1%
  pEC50 of relaxation: 6.53±0.08
Rat hepatic artery; [9]
  pEC50 of relaxation: 6.30±0.04

## Oc1cc2c(cc1O)CN(C(=S)NCCc1ccc(Cl)cc1)CCC2 [capsazepine]
Rat hepatic artery; capsazepine 3 μM
  effect on anandamide-induced relaxation: significantly inhibited
  effect on AM404-induced relaxations: significant right-ward shift
  effect on capsaicin-induced relaxation: significantly inhibited
Rat mesenteric artery
  effect on relaxant effects of 1-arachidonylglycerol and 2-arachidonylglycerol: inhibited
Rat mesenteric artery; [6]
  effect on anandamide-induced relaxation: significantly inhibited
  effect on capsaicin-induced relaxation: significantly inhibited
[1]; [7]
  effect on anandamide-induced relaxation: significantly inhibited
  effect on capsaicin-induced relaxation: significantly inhibited
[3]; capsazepine 10 μM
  effect on anandamide-induced release of CGRP: inhibited
Vanilloid receptors; capsaicin as agonist
  slope of the Schild regression line: 2.12±0.36
  Kb: 575 nM
Vanilloid receptors; methanandamide as agonist
  slope of the Schild regression line: 2.41±0.32
  Kb: 457 nM

## COc1cc(CNC(=O)CCCC/C=C/C(C)C)ccc1O [capsaicin]
Rat hepatic artery; 10 μM
  relaxation at 10 μM: completely relaxed
Rat hepatic artery; [5]
  Emax: 99 ± 1%
Rat hepatic artery; Rattus norvegicus, in presence of SR141716A (10 μM)
  Emax: 90 ± 3%
Rat hepatic artery; capsazepine 3 μM
  effect on anandamide-induced relaxation: abolished
  effect on AM404-induced relaxations: abolished
Rat hepatic artery; control (agonist alone)
  EC50: 4.27 nM
Rat hepatic artery; in presence of SR141716A (10 μM)
  pEC50 of relaxation: 7.42±0.12
Rat mesenteric artery
  effect on relaxant effects of 1-arachidonylglycerol and 2-arachidonylglycerol: abolished
Rat mesenteric artery; [6]
  effect on anandamide-induced relaxation: abolished
[1]; [4]
  relaxation at 10 μM: completely relaxed
[1]; [7]
  effect on anandamide-induced relaxation: abolished

B1: α-latrotoxin (protein, UniProt P23631 21-1199, looked up)
Alpha-latrotoxin-Lt1a: EGEDLTLEEKAEICSELELQQKYVDIASNIIGDLSSLPIAGKIAGTIAAAAMTATHVASGRLDIEQTLLGCSDLPFDQIKEVLENRFNEIDRKLDSHSAALEEITKLVEKSISVVEKTRKQMNKRFDEVMKSIQDAKVSPIISKINNFARYFDTEKERIRGLKLNDYILKLEEPNGILLHFKESRTPTDDSLQAPLFSIIEEGYAVPKSIDDELAFKVLYALLYGTQTYVSVMFFLLEQYSFLANHYYEKGYLEKYDEYFNSLNNVFLDFKSSLVGTGTSNNEGLLDRVLQVLMTVKNSEFLGLEKNGVDEMLNEKINLFNKIKEEIEGKQKMTLSETPENFAQISFDKDITTPIGDWRDGREVRYAVQYASETLFSKISHWSDPVSVREKACPTLRMPVDQTRRNVLVFRKFDSSKPQLVGEITPYLSNFIDIDRDLYNAASNPDSAVGFKEFTKLNYDGANIRATFDHGRTVFHAAAKSGNDKIMFGLTFLAKSTELNQPDKKGYTPIHVAADSGNAGIVNLLIQRGVSINSKTYHFLQTPLHLAAQRGFVTTFQRLMESPEININERDKDGFTPLHYAIRGGERILEAFLNQISIDVNAKSNTGLTPFHLAIIKNDWPVASTLLGSKKVDINAVDENNITALHYAAILGYLETTKQLINLKEINANVVSSPGLLSALHYAILYKHDDVASFLMRSSNVNVNLKALGGITPLHLAVIQGRKQILSLMFDIGVNIEQKTDEKYTPLHLAAMSKYPELIQILLDQGSNFEAKTNSGATPLHLATFKGKSQAALILLNNEVNWRDTDENGQMPIHGAAMTGLLDVAQAIISIDATVVDIEDKNSDTPLNLAAQNSHIDVIKYFIDQGADINTRNKKGLAPLLAFSKKGNLDMVKYLFDKNANVYIADNDGMNFFYYAVQNGHLNIVKYAMSEKDKFEWSNTDNNRRDECPNEECAISHFAVCDAVQFDRIEIVKYFVGTLGNFAICGPLHQAARYGHLDIVKYLVEEEFLSVDGSKTDTPLCYASENGHFTVVQYLVSNGAKVNHDCGNGMTAIDKAITKNHLQVVQFLAANGVDFRRKNSRGTTPFLTAVAENALHIAEYLIREKRQDININEQNVDKDTALHLAVYYKNLQMIKLLIKYGIDVTIRNAYDKTALDIAIDAKFSNIVEYLKTKSGKFRR
Rat hepatic artery; CGRP 8-37 (2 μM)
  vasodilator response (relaxation): −8±3%
Rat hepatic artery; capsaicin pre-treatment
  vasodilator response (relaxation): −16±8%
Rat hepatic artery; capsazepine (3 μM)
  vasodilator response (relaxation): 93±2%
Rat hepatic artery; control
  vasodilator response (relaxation): 98±1%
